Consider one molecule from patent publication US20120232043A1, “LUBIPROSTONE FOR OBSTETRICAL OR GYNECOLOGICAL APPLICATIONS” (CEMAG, priority 2009, published 2012).

This data set concerns women requesting early pregnancy termination (<64 days of amenorrhea). The data set can be described thus: Early pregnancy termination in women: oral mifepristone followed by oral lubiprostone. The class given is in vivo. As to conditions: twelve women, 200 mg mifepristone once orally, followed 24 hours later by oral lubiprostone 8 μg twice daily for 2 consecutive days. The protocol: Twelve women requesting early pregnancy termination (<64 days of amenorrhea) have received 200 mg mifepristone once, orally followed 24 hours later by the oral administration of lubiprostone (8 μg twice daily for 2 consecutive days). Efficacy rate (i.e. complete pregnancy termination, without need for surgical procedure) was […]. In one person, ovular fragments had to be removed at the uterine os with a forceps. Median bleeding time was 8 days. There was no specific adverse event except mild diarrhea in 3 subjects.

Structures are written as SMILES.

Regarding `CCCCC(F)(F)[C@@]1(O)CC[C@H]2[C@@H](CC(=O)[C@@H]2CCCCCCC(=O)O)O1` [lubiprostone, 7-[(2R,4aR,5R,7aR)-2-(1,1-difluoropentyl)-2-hydroxy-6-oxo-3,4,4a,5,7,7a-hexahydrocyclopenta[b]pyran-5-yl]heptanoic acid], the “Adverse event: mild diarrhea (no other specific adverse event)” value was determined as 3 subjects, the Median bleeding time was determined as 8 days and the “Ovular fragments had to be removed at the uterine os with a forceps” value is recorded as “one”. The “Efficacy rate (i.e. complete pregnancy termination, without need for surgical procedure)” value (<64 days of amenorrhea) is reported as 97%.
